PMC7998669, “7-(2-Anilinopyrimidin-4-yl)-1-benzazepin-2-ones Designed by a “Cut and Glue” Strategy Are Dual Aurora A/VEGF-R Kinase Inhibitors” (Molecules, 2021)

Columns and labels:
Test in all cases: radiometric 33PanQinase protein kinase assay
Assay type in all cases: biochemical
Settings in all cases: 1 µM ATP
TIE2 = target: T1, TIE2 (Homo sapiens, UniProt Q02763)
T1 construct: host or cells: Sf9 (baculovirus)

IGF1-R = target: T2, IGF1-R (Homo sapiens, UniProt P08069)
T2 construct: host or cells: Sf9 (baculovirus)

FLT3 = target: T3, FLT3 (Homo sapiens, UniProt P36888)
T3 construct: host or cells: Sf9 (baculovirus)

SAK = target: T4, SAK (Homo sapiens, UniProt O00444)
T4 construct: host or cells: Sf9 (baculovirus)

MET = target: T5, MET (Homo sapiens, UniProt P08581)
T5 construct: host or cells: Sf9 (baculovirus)

CDK4/CycD1 = target: T6, CDK4/CycD1 (Homo sapiens, UniProt P11802)
T6 construct: host or cells: Sf9 (baculovirus)

PLK1 = target: T7, PLK1 (Homo sapiens, UniProt P53350)
T7 construct: host or cells: Sf9 (baculovirus)

EGF-R = target: T8, EGF-R (Homo sapiens, UniProt P00533)
T8 construct: host or cells: Sf9 (baculovirus)

PAK4 = target: T9, PAK4 (Homo sapiens, UniProt O96013)
T9 construct: host or cells: Sf9 (baculovirus)

FAK = target: T10, FAK (Homo sapiens, UniProt Q05397)
T10 construct: host or cells: Sf9 (baculovirus)

EPHB4 = target: T11, EPHB4 (Homo sapiens, UniProt P54760)
T11 construct: host or cells: Sf9 (baculovirus)

ARK5 = target: T12, ARK5 (Homo sapiens, UniProt O60285)
T12 construct: host or cells: Sf9 (baculovirus)

PDGFR-beta = target: T13, PDGFR-beta (Homo sapiens, UniProt P09619)
T13 construct: host or cells: Sf9 (baculovirus)

PDK1 = target: T14, PDK1 (Homo sapiens, UniProt O15530)
T14 construct: host or cells: Sf9 (baculovirus)
T14 sequence (O15530 whole entry): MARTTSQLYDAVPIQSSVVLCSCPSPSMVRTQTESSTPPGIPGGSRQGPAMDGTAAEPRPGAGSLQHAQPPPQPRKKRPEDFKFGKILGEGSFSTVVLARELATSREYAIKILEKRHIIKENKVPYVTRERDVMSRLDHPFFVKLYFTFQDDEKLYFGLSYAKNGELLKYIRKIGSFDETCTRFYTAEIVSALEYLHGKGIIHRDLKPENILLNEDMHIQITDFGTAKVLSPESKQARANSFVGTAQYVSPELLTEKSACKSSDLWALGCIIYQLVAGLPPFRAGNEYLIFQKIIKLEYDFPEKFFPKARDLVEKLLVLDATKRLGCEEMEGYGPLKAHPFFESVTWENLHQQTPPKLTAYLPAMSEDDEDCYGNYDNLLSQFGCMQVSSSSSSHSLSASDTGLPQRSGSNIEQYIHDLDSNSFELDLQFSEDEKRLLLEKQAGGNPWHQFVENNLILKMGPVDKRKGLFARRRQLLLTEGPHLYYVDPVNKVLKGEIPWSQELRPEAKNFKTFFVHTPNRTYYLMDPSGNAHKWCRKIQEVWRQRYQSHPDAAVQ

T3 sequence (P36888 27-993): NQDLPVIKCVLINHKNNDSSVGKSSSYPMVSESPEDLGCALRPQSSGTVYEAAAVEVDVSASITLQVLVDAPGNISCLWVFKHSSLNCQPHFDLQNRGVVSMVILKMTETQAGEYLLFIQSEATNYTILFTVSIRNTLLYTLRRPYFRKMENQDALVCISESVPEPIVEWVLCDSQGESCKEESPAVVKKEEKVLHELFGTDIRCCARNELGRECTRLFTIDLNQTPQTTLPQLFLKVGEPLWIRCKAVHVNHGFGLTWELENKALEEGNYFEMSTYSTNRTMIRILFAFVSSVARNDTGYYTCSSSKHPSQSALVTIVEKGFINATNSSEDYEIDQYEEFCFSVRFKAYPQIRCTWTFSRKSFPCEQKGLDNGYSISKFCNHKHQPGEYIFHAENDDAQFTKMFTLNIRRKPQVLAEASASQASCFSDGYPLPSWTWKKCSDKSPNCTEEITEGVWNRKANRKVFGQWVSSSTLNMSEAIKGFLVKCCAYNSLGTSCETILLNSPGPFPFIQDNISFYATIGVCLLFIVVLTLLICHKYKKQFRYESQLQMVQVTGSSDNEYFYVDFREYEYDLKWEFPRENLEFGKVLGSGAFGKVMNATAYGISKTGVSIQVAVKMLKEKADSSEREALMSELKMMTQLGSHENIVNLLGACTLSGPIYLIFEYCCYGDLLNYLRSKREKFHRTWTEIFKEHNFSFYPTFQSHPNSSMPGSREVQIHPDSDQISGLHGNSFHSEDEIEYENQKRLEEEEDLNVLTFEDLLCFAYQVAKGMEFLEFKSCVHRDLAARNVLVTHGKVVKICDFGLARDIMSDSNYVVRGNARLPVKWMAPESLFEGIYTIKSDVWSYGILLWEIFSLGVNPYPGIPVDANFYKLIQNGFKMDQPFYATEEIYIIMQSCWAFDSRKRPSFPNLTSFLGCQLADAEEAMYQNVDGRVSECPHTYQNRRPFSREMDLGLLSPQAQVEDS
T6 sequence (P11802 whole entry): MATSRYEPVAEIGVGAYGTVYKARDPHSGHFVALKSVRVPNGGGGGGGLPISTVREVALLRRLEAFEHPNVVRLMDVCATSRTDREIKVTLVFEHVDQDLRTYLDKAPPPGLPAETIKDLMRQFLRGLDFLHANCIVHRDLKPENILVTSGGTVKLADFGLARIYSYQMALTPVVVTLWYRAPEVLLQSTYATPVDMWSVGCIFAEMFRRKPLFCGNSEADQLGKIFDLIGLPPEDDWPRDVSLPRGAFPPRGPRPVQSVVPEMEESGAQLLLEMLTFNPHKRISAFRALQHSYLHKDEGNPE
T6 sequence (P24385 whole entry partner): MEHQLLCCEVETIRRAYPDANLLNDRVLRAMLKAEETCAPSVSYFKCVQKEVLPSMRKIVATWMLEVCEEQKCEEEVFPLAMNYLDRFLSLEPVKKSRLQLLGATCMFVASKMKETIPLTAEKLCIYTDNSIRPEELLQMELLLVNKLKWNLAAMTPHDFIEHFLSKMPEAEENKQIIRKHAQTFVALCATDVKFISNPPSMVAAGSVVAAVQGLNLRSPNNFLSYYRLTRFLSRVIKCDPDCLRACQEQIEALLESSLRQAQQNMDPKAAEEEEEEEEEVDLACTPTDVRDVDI
T4 sequence (O00444 whole entry): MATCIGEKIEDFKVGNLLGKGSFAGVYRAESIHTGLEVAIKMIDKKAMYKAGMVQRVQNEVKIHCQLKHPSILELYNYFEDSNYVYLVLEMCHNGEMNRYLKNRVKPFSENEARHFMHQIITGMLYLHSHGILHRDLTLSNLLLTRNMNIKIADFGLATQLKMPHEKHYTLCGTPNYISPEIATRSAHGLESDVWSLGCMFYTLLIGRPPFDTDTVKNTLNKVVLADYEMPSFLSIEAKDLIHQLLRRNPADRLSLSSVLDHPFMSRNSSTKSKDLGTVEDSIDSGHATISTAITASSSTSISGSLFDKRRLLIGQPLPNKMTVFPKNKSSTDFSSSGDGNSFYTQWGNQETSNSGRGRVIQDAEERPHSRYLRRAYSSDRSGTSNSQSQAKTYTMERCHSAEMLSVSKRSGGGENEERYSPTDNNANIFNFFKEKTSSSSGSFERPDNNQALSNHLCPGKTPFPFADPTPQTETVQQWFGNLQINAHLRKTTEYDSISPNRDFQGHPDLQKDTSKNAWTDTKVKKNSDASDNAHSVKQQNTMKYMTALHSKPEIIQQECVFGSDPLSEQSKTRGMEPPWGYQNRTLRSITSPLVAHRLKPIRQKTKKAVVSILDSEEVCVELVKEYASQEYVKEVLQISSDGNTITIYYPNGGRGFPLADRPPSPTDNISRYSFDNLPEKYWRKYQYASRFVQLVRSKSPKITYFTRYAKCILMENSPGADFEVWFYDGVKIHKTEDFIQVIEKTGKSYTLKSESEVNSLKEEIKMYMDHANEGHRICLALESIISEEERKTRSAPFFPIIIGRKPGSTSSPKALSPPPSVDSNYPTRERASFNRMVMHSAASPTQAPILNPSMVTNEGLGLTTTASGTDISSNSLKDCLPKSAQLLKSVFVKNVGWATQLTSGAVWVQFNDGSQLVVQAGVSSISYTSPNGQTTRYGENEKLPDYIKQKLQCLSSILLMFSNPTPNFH
T12 sequence (O60285 whole entry): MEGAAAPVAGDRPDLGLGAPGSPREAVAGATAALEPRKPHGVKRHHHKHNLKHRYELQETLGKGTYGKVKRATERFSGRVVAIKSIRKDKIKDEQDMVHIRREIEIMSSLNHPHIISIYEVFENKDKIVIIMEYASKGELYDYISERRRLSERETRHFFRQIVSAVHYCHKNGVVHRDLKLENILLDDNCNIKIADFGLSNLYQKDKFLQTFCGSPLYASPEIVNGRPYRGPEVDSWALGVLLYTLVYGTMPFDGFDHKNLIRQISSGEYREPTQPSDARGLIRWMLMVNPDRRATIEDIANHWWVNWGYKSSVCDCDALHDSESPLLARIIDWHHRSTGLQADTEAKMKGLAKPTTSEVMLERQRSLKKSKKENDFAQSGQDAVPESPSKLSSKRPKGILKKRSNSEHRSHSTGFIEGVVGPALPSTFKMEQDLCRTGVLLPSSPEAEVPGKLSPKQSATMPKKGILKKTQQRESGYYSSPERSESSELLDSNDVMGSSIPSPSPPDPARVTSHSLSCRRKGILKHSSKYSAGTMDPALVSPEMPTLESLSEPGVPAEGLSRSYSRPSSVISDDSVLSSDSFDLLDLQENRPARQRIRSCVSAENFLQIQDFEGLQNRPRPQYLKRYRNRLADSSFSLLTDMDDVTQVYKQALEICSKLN
T7 sequence (P53350 whole entry): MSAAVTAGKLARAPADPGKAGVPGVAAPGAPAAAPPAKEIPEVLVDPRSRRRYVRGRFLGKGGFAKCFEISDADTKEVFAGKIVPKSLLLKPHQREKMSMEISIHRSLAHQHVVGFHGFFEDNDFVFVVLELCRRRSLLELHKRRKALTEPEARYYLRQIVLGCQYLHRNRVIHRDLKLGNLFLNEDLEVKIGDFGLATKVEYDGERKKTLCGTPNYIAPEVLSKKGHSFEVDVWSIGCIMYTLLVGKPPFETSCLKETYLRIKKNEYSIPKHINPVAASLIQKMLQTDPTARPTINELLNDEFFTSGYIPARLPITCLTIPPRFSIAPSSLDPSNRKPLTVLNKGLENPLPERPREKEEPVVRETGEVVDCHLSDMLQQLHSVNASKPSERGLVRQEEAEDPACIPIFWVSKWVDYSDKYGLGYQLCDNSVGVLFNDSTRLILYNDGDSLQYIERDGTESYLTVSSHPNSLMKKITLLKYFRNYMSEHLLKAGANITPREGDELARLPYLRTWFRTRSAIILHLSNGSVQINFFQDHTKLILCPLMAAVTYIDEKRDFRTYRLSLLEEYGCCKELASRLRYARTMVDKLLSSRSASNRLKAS
T9 sequence (O96013 whole entry): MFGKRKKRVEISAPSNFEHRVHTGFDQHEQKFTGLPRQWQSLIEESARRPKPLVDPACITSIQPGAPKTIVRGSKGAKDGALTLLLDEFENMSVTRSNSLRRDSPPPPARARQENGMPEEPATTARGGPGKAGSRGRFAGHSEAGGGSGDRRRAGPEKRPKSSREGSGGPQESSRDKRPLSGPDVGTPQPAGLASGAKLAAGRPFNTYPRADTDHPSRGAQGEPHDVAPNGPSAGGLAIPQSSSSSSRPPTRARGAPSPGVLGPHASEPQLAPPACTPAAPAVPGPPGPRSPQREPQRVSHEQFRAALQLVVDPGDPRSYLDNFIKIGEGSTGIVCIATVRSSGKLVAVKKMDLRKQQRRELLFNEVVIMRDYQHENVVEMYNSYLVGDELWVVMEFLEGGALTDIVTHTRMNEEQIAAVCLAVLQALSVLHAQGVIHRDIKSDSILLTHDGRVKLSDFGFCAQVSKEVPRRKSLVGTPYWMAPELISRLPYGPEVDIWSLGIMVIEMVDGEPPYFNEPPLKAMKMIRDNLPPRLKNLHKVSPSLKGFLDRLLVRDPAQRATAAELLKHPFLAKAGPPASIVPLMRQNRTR

IC50 (TIE2): 19 µM
IC50 (IGF1-R): > 100 µM
IC50 (FLT3): 16 µM
IC50 (SAK): > 100 µM
IC50 (MET): > 100 µM
IC50 (CDK4/CycD1): 19 µM
IC50 (PLK1): > 100 µM
IC50 (EGF-R): > 100 µM
IC50 (PAK4): > 100 µM
IC50 (FAK): > 100 µM
IC50 (EPHB4): > 100 µM
IC50 (ARK5): > 100 µM
IC50 (PDGFR-beta): 44 µM
IC50 (PDK1): > 100 µM
SMILES: O=C1CCCc2cc(-c3ccnc(Nc4ccccc4)n3)ccc2N1 [Compound 2a, 7-(2-Anilinopyrimidin-4-yl)-1,3,4,5-tetrahydro-2H-1-benzazepin-2-one]
